Data on 18 compounds can be found in patent US10131670B2, “Bicyclic heteroaryl derivatives as CFTR potentiators” (CYSTIC FIBROSIS FOUNDATION THERAPEUTICS, INC., priority 2016, dated 2018).

For experiment [1], the target named is G551D (Homo sapiens, UniProt P13569, G551D). The note with it: G551D patients; cited from earlier work.
The target of experiment [2] is F508del (Homo sapiens (Human), UniProt P13569, DEL508-508). The conditions noted are these: F508del homozygote patients; cited from earlier work.
Sequence of F508del (P13569 other isoform, or with tags, fused parts or gaps del F508-F508): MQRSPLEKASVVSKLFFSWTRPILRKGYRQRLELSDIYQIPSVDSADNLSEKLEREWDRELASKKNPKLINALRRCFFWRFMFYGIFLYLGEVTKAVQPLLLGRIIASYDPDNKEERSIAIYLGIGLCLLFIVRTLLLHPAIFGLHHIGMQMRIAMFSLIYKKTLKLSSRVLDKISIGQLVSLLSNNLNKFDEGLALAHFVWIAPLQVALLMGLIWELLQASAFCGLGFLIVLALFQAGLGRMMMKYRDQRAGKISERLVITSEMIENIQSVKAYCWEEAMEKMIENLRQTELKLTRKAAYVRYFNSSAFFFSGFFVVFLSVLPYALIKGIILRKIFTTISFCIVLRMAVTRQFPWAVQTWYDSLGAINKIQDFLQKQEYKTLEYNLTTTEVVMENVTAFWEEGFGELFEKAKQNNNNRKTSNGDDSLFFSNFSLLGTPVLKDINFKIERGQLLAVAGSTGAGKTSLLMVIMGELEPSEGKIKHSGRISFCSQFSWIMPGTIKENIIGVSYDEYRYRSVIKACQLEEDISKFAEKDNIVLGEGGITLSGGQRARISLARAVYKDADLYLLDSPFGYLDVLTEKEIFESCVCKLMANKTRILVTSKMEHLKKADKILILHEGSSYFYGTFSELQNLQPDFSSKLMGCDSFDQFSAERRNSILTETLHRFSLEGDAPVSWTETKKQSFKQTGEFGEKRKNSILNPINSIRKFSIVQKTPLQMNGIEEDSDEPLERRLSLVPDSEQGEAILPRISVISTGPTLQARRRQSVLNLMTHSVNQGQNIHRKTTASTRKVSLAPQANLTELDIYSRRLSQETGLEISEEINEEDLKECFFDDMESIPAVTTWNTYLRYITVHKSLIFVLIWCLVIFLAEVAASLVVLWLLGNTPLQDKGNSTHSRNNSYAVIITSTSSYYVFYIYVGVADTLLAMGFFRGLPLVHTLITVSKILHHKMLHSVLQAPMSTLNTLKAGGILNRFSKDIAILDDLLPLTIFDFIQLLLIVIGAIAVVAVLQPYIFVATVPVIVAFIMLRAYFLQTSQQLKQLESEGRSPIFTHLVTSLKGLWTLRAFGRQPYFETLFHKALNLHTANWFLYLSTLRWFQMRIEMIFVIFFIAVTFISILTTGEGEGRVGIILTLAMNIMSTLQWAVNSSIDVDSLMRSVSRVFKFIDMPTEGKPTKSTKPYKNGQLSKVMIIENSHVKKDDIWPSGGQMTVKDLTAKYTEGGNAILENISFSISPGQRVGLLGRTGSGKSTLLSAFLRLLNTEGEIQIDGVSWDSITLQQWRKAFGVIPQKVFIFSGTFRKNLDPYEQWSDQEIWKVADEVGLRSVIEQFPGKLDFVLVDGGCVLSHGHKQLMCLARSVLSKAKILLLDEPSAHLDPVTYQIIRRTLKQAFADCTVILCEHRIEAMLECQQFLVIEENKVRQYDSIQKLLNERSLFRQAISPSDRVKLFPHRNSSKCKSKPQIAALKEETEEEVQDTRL
The target in experiment [3] is F508del V470 CFTR (Homo sapiens, UniProt P13569, DEL508-508). The experiment in a line: FRT Ion Flux Assay of F508del CFTR Potentiation. Format: cell-based. The note with it: FRT cells expressing F508del V470 CFTR and halide-sensitive YFP, forskolin 20 uM, 30 min. The method, then:
FRT Ion Flux Assay of F508del CFTR Potentiation
Fischer rat thyroid (FRT) cell lines stably expressing recombinant F508del V470 CFTR and halide-sensitive yellow fluorescent protein (Pedemonte et al., J. Clin. Invest. 115(9) 2564-71 (2005)) were seeded at 25,000 cells/well in 50 uL/well of culture medium into black-walled, clear bottom tissue-culture-treated 384-well plates (Corning, cat. no. 3712). After one day, the cells were pre-incubated at 27° C./5% CO2 for 16-24 hours. The cells were then washed with dPBS and treated with forskolin (20 uM) and test compound for 30 min by addition of 20 uL of compound dilution buffer (dPBS containing forskolin and test compound). Plates were loaded into FLIPR384 fluorescence imaging plate reader (Molecular Devices). After an initial fluorescence reading, iodide buffer (25 uL) (composition (in mM): 137 NaI, 1.5 K2PO4, 8.1 NaH2PO4, 2.7 KCl, 0.5 MgCl2, 1 CaCl2) was added and a second fluorescence reading was made after approximately 21 seconds. Data treatment involved division of the second fluorescence reading by the initial fluorescence reading, then scaling of the resulting normalized endpoint fluorescence with respect to the responses for DMSO (0%) and a positive control potentiator (100%).

The target of experiment [4] is CFTR (Homo sapiens, UniProt P13569). The experiment in a line: Ussing Chamber Electrophysiology Assay of CFTR Potentiation in CF Bronchial Epithelial Cells. The note with it: primary CF hBE cells, short-circuit current, scaled to DMSO (0%) and positive control potentiator (100%). Format: cell-based. The text has this:
Ussing Chamber Electrophysiology Assay of CFTR Potentiation in CF Bronchial Epithelial Cells
Primary cystic fibrosis human bronchial epithelial (CF hBE) cells were expanded and cultured according to published methods (Neuberger et al., Ch. 4 of Cystic Fibrosis, Methods in Molecular Biology vol. 741, pp. 39-54 (2011)). Well-differentiated cells (>30 days at air/liquid interface) on Snapwell filters (Corning Costar, cat. no. 3801) were mounted in Ussing chambers (Physiologic Instruments, Inc., San Diego, Calif.). F508del/F508del cultures were assayed at 27° C. and G551D/F508del cells were assayed at 35° C. HEPES buffered physiological saline (composition (in mM): 137 NaCl, 4 KCl, 1 MgCl2, 1.8 CaCl2, 10 HEPES Na) was used in both apical and basolateral chambers. Chambers were bubbled with air to promote mixing and the voltage was clamped to zero. Amiloride (30 uM), forskolin (10 uM), test compound (4 increasing concentrations), and CFTRinh-172 (20 uM) were added sequentially with 20-25 minutes between additions. Short-circuit currents were acquired and analyzed using LabScribe2. Test compound responses were scaled relative to responses for DMSO (0%) and the maximal response of a positive control potentiator (100%).

Sequence of F508del V470 CFTR (P13569 with tags, fused parts or gaps DEL508-508): as the sequence (P13569 other isoform, or with tags, fused parts or gaps del F508-F508) above

In the case of `CC(C)(C)c1cc(C(C)(C)C)c(NC(=O)c2c[nH]c3ccccc3c2=O)cc1O` [Kalydeco®, ivacaftor], in experiment [1], the “percent predicted FEV1 increased” value is given as 10-13%. For the same compound, the improvement with monotherapy result in experiment [2] is listed as “did not lead to any appreciable improvement”.
By EC50 is commonly meant the concentration needed to bring the measured effect to its halfway point. With `CC(c1cnn(-c2ccc(F)cc2F)c1)c1c(C#N)c(-c2cnc(C(F)(F)F)nc2)c2c(N)ncnn12` (single isomer, unassigned) [Example 20, 4-amino-7-{1-[1-(2,4-difluorophenyl)-1H-pyrazol-4-yl]ethyl}-5-[2-(trifluoromethyl)pyrimidin-5-yl]pyrrolo[2,1-f][1,2,4]triazine-6-carbonitrile], the values for the 50% effective concentration (EC50) in experiment [3] and in experiment [4] were 0.03 µM and 0.00894 µM, respectively.
The matching figures for `CCC(c1cn(-c2cc(F)ccc2F)nn1)c1c(C#N)c(-c2cnc(C(F)(F)F)nc2)c2c(N)ncnn12` (single isomer, unassigned) [Example 8, 4-amino-7-{1-[1-(2,5-difluorophenyl)-1H-1,2,3-triazol-4-yl]propyl}-5-[2-(trifluoromethyl)pyrimidin-5-yl]pyrrolo[2,1-f][1,2,4]triazine-6-carbonitrile]: 0.0172 µM and 0.013 µM.
In the same order, the values of `CCC(c1cn(-c2ccccc2F)nn1)c1c(C#N)c(-c2cnc(C(F)(F)F)nc2)c2c(N)ncnn12` (single isomer, unassigned) [Example 4, 4-amino-7-{1-[1-(2-fluorophenyl)-1H-1,2,3-triazol-4-yl]propyl}-5-[2-(trifluoromethyl)pyrimidin-5-yl]pyrrolo[2,1-f][1,2,4]triazine-6-carbonitrile] are 0.0358 µM and 0.0205 µM.
Regarding `CCC(c1cn(-c2ccccc2)nn1)n1nc(-c2cnc(C(F)(F)F)nc2)c2c(N)ncnc21` (single isomer, unassigned) [Example 95, 1-[1-(1-phenyl-1H-1,2,3-triazol-4-yl)propyl]-3-[2-(trifluoromethyl)pyrimidin-5-yl]-1H-pyrazolo[3,4-d]pyrimidin-4-amine], the EC50 in experiment [3] was 0.349 µM; in experiment [4], 0.188 µM.
In the same order, the values of `CCC(c1cn(-c2ccccc2F)nn1)c1cc(-c2cncnc2OC)c2c(N)ncnn12` (single isomer, unassigned) [Example 66, 7-{1-[1-(2-fluorophenyl)-1H-1,2,3-triazol-4-yl]propyl}-5-(4-methoxypyrimidin-5-yl)pyrrolo[2,1-f][1,2,4]triazin-4-amine] are 0.524 µM and 0.123 µM.
On to `CC(c1cnn(-c2ccccc2F)c1)c1c(C#N)c(-c2cnc(C(F)(F)F)nc2)c2c(N)ncnn12` (single isomer, unassigned) [Example 12, 4-amino-7-{1-[1-(2-fluorophenyl)-1H-pyrazol-4-yl]ethyl}-5-[2-(trifluoromethyl)pyrimidin-5-yl]pyrrolo[2,1-f][1,2,4]triazine-6-carbonitrile], for which the EC50 in experiment [3] came out at 0.0125 µM; in experiment [4], 0.004 µM.
As to `CC(c1cn(-c2ccccc2F)nn1)c1c(C#N)c(-c2cnc(C(F)(F)F)nc2)c2c(N)ncnn12` (single isomer, unassigned) [Example 2, 4-amino-7-{1-[1-(2-fluorophenyl)-1H-1,2,3-triazol-4-yl]ethyl}-5-[2-(trifluoromethyl)pyrimidin-5-yl]pyrrolo[2,1-f][1,2,4]triazine-6-carbonitrile], the concentration giving a half-maximal response (EC50) in experiment [3] came out at 0.00914 µM; in experiment [4], 0.0112 µM.
In the same order, the values of `CCC(c1cn(-c2ccccc2F)nn1)c1cc(-c2cnc(C(F)(F)F)nc2)c2c(N)ncnn12` (single isomer, unassigned) [Example 57, 7-{1-[1-(2-fluorophenyl)-1H-1,2,3-triazol-4-yl]propyl}-5-[2-(trifluoromethyl)pyrimidin-5-yl]pyrrolo[2,1-f][1,2,4]triazin-4-amine] are 0.00188 µM and 0.002 µM.
The matching figures for `CCC(c1cn(-c2ccccc2F)nn1)c1cc(-c2cnc(C(F)(F)F)nc2)c2c(N)ncnn12` (stereo not drawn) [Example 82, 7-{1-[1-(2-fluorophenyl)-1H-1,2,3-triazol-4-yl]propyl}-5-[2-(trifluoromethyl)pyrimidin-5-yl]pyrrolo[2,1-f][1,2,4]triazin-4-amine]: 0.00583 µM and 0.00493 µM.
With `CCC(c1cnn(C(C)C)c1)c1c(C#N)c(-c2cnc(C(F)(F)F)nc2)c2c(N)ncnn12` (single isomer, unassigned) [Example 11, 4-amino-7-{1-[1-(propan-2-yl)-1H-pyrazol-4-yl]propyl}-5-[2-(trifluoromethyl)pyrimidin-5-yl]pyrrolo[2,1-f][1,2,4]triazine-6-carbonitrile], the half-maximal effective concentration (EC50) came to 0.00417 µM in experiment [3] and 0.00696 µM in experiment [4].
As to `CCC(c1cn(-c2ccc(F)cc2F)nn1)c1c(C#N)c(-c2cnc(C(F)(F)F)nc2)c2c(N)ncnn12` (single isomer, unassigned) [Example 6, 4-amino-7-{1-[1-(2,4-difluorophenyl)-1H-1,2,3-triazol-4-yl]propyl}-5-[2-(trifluoromethyl)pyrimidin-5-yl]pyrrolo[2,1-f][1,2,4]triazine-6-carbonitrile], the EC50 in experiment [3] was 0.00505 µM; in experiment [4] it was 0.00548 µM.
The matching figures for `CCC(c1cn(-c2ccccc2F)nn1)c1cc(-c2cncnc2OC)c2c(N)ncnn12` (single isomer, unassigned) [Example 65, 7-{1-[1-(2-fluorophenyl)-1H-1,2,3-triazol-4-yl]propyl}-5-(4-methoxypyrimidin-5-yl)pyrrolo[2,1-f][1,2,4]triazin-4-amine]: 0.014 µM and 0.0104 µM.
Take `CCC(c1cn(-c2ccc(F)c(F)c2)nn1)c1cc(-c2cnc(C(F)(F)F)nc2)c2c(N)ncnn12` (single isomer, unassigned) [Example 64, 7-{1-[1-(3,4-difluorophenyl)-1H-1,2,3-triazol-4-yl]propyl}-5-[2-(trifluoromethyl)pyrimidin-5-yl]pyrrolo[2,1-f][1,2,4]triazin-4-amine]: the values for the EC50 in experiment [3] and in experiment [4] were 0.479 µM and 0.177 µM, respectively.
Take `CCC(c1cnn(-c2ccccc2F)c1)c1c(C#N)c(-c2cnc(C(F)(F)F)nc2)c2c(N)ncnn12` (single isomer, unassigned) [Example 14, 4-amino-7-{1-[1-(2-fluorophenyl)-1H-pyrazol-4-yl]propyl}-5-[2-(trifluoromethyl)pyrimidin-5-yl]pyrrolo[2,1-f][1,2,4]triazine-6-carbonitrile]: the EC50 in experiment [3] amounted to 0.00659 µM; in experiment [4] it was 0.002 µM.
Take `CC(c1cn(-c2ccc(F)cc2F)nn1)c1c(C#N)c(-c2cnc(C(F)(F)F)nc2)c2c(N)ncnn12` (single isomer, unassigned) [Example 3, 4-amino-7-{1-[1-(2,4-difluorophenyl)-1H-1,2,3-triazol-4-yl]ethyl}-5-[2-(trifluoromethyl)pyrimidin-5-yl]pyrrolo[2,1-f][1,2,4]triazine-6-carbonitrile]: the concentration for a half-maximal effect (EC50) was 0.0106 µM in experiment [3] and 0.0146 µM in experiment [4].
Take `CCC(c1cn(-c2ccccc2)nn1)n1nc(-c2cnc(C(F)(F)F)nc2)c2c(N)ncnc21` (single isomer, unassigned) [Example 94, 1-[1-(1-phenyl-1H-1,2,3-triazol-4-yl)propyl]-3-[2-(trifluoromethyl)pyrimidin-5-yl]-1H-pyrazolo[3,4-d]pyrimidin-4-amine]: the 50% effective concentration (EC50) in experiment [3] was determined as 0.0503 µM; in experiment [4] it was 0.0744 µM.
In the same order, the values of `CC(c1cn(-c2ccc(F)cc2F)nn1)c1cc(-c2cnc(C(F)(F)F)nc2)c2c(N)ncnn12` (single isomer, unassigned) [Example 55, 7-{1-[1-(2,4-difluorophenyl)-1H-1,2,3-triazol-4-yl]ethyl}-5-[2-(trifluoromethyl)pyrimidin-5-yl]pyrrolo[2,1-f][1,2,4]triazin-4-amine] are 0.266 µM and 0.225 µM.
